Measured values published in US20250251402A1, “METHODS OF DETECTING MOLECULAR AGGREGATES USING IMAGE CORRELATION SPECTROSCOPY (ICS)” (The General Hospital Corporation, priority 2022, published 2025).
“Also recorded” adds a separate entry of the source.

How the values were obtained:
[1] = test system: HT1080 cells; test: γH2AX immunofluorescence ICS DA and nuclear intensity in HT1080 cells; format: cell-based
Method: (§1) Cells were plated in 8-well […] slides (Thermo or Ibidi) to achieve 50% confluence overnight. Cells were then treated and fixed with 4% paraformaldehyde in PBS at room temperature for 10 minutes. Antibody staining was performed according to the manufacturers protocol. Following fluorescent secondary antibody labeling, prolong gold with DAPI (Cell Signaling Technologies) was added and samples were stored for up to 1 week prior to imaging.
ICS analysis was performed in MATLAB as previously described (41). Briefly, nuclei were segmented from the DAPI channel with the MATLAB function, imbinarize, converting the greyscale image to a binary dependent on an automatically defined threshold. The MATLAB function, regionprops, was used to identify single nuclei as objects. Each nucleus was used as a mask to perform ICS analysis on the antibody-stained channel, within size limitations for a nucleus (objects >400 and <3000 pixels). To ensure the analysis of antibody stained nuclei, nuclei under an average intensity of 200 au after background subtraction were excluded. The spatial autocorrelation functions were calculated using Fourier methods, then fit to a 2D Gaussian using a nonlinear least-squares algorithm (41). Using the outputs of the fitting, the mean number of independent emitting fluorescent entities per focal spot area and subsequently the DA were determined (59). DA measurements across experiments were normalized by the control in each dataset. […] Any DA values exceeding 3 standard deviations from the mean were defined as incorrectly segmented and removed. Data were plotted in Prism and analysis performed in Prism or Excel.

[2] = test system: HCC1937 cells; test: 53BP1-mApple condensate anisotropy (homo-FRET) and intensity in HCC1937 cells; format: cell-based; settings: HCC1937, 1 μM PARPi and 100 μM TMZ for 1 hour
Method: (§2) All fluorescence imaging was performed on an Olympus FV1000 multiphoton/confocal microscope. Anisotropy measurements were performed through custom modifications to the imaging system as previously described (30). Briefly, linear polarization of two photon excitation light at 910 nm (MaiTai femtosecond laser, Spectra Physics) was controlled by a glan-thompson prism and half wave plate. […] was collected in orthogonal orientations through two detectors, parallel and perpendicular to excitation polarization, through a polarizing beam splitter that replaced a dichroic mirror in the emission filter cube. The alignment and detector gain and noise were validated each imaging session through measurements of a standard slide. Images were taken with an Olympus 25× XLPlan N objective, NA 1.05, and 3× digital zoom. Confocal imaging was performed with an Olympus XLUMPlanFL N 20× objective, NA 1.00 with chromatic correction, and 3× digital zoom.
Cells were grown on 12 mm round, uncoated, sterilized glass coverslips in 24-well plates for 24 hours. Cells were treated with PARPi and 100 μM TMZ for 1 hour or 10 nM GMX1778 overnight followed by 100 μM TMZ for 1 hour. TMZ was added to stimulate new DNA damage induced condensates in the presence of PARPi or NAD″ depletion. Cells were then transferred to the microscope for anisotropy imaging. Images were analyzed in MATLAB. Nuclei were segmented through intensity thresholding and condensates were segmented through further intensity thresholding with a higher threshold. Values of segmented nuclei and condensates were determined through the regionprops function. Segmentation was corrected through area restrictions to ensure that regions of interest were isolated condensates. The thresholding parameters were consistent throughout experiments. The average intensity and anisotropy of each segmented nuclei or condensate was then calculated. Data were plotted in Prism and analysis performed in Prism or Excel.

[3] = test system: 7 cell lines; test: γH2AX immunofluorescence DA and intensity in 7 cell lines; format: cell-based; settings: all cell lines, 1 μM PARPi overnight
Method: as §1
ICS analysis was performed in MATLAB as previously described (41). Briefly, nuclei were segmented from the DAPI channel with the MATLAB function, imbinarize, converting the greyscale image to a binary dependent on an automatically defined threshold. The MATLAB function, regionprops, was used to identify single nuclei as objects. Each nucleus was used as a mask to perform ICS analysis on the antibody-stained channel, within size limitations for a nucleus (objects >400 and <3000 pixels). To ensure the analysis of antibody stained nuclei, nuclei under an average intensity of 200 au after background subtraction were excluded. The spatial autocorrelation functions were calculated using Fourier methods, then fit to a 2D Gaussian using a nonlinear least-squares algorithm (41). Using the outputs of the fitting, the mean number of independent emitting fluorescent entities per focal spot area and subsequently the DA were determined (59). […]

[4] = test system: HT1080 cells; test: Dose response cell viability (Presto Blue) in HT1080 cells; format: cell-based; settings: HT1080, 100 nM PDD00017273
Method: Cells were plated in a 96-well plate at 2×10^3 cells per well and treated with drug for 5 days in three replicate wells. Cell viability was then determined using Presto Blue (Thermo Fisher). Signal was averaged over 3 replicate wells and normalized to blank (no cells) as well as to the levels of untreated wells. A sigmoidal response curve was fit to the average of two experiments in Prism. PARPi z score was calculated for each PARPi using 9 cell lines. The average z score over three PARPi (veliparib, olaparib, talazoparib) was then determined as a representation of cell line PARPi sensitivity.

[5] = test system: SKOV3 cells; test: γH2AX immunofluorescence in SKOV3 cells (intensity, Imaris Spots, ICS TNoP and DA); format: cell-based
Source text: (§3) For the ICS analysis, nuclei were segmented from the DAPI channel using a watershed approach in MATLAB. Briefly, we applied a difference of gaussians for size-based feature extraction of nuclei in the image (upper gaussian σ=100, lower gaussian σ=2-5 dependent on cell size). This feature enhanced image was then binarized to create a primary mask (using the function imbinarize) and connected components under 100 pixels were removed (using the function bwareaopen). We then created a distance transform of the resulting binary image (using the function bwdist). Seed points were determined by finding the regional maximum of a gaussian filtered image, with a gaussian σ of appropriate size for seed point detection (σ×7 or 8 dependent on cell size). The seed points were applied to the distance transform, and we applied the watershed function to the resulting image to obtain masks for each nucleus (extracted using the function regionprops).
(§4) Using the nucleus masks, we performed ICS analysis on the antibody-stained channel, within size limitations for a nucleus (objects >400 and <2400 pixels). Intensity, DA and TNOP were calculated for each cell. In this analysis, since the ROI is defined by the nucleus mask (segmented from nuclear signal using DAPI staining), TNoP represents the total number of particles per nucleus, with the image area being the number of pixels in each nuclear mask.
(§5) Measurements across experiments were normalized by the control in each dataset. […] Data were plotted in Prism and statistical analysis was performed in Excel.
(§6) Imaris spots analysis were performed with Imaris 9.8 with background subtraction, using a spot size of 1 μm that was measured from the smallest distinguishable foci from the control image. For images with multiple nuclei, ImarisCell was used with the detection type “cell and vesicles”, where the nucleus in the DAPI channel was modelled as the “cell” and antibody-labeled foci were modelled as the “vesicles”. This enabled us to count the number of foci per nucleus for multiple cells. In each dataset, the automatic “quality” threshold was determined from the control image and the same threshold was used for every image in the dataset to be able to compare the outputs across datasets. Similar to the ICS analysis, only cells with an area between 400-2400 voxels were included for analysis.
(§7) All chemicals were purchased from Sigma unless otherwise noted. All drugs were purchased from Selleck Chemicals. Cells were cultured in media supplemented with 10% fetal bovine serum and 1% penicillin/streptomycin. OVCA429 were originally obtained from Dr. Michael Birrer and cultured in DMEM. SKOV3 was obtained from ATCC and cultured in RPMI. For MMS treatment, cells were incubated for 6 hours before fixation with 4% formaldehyde, whereas for treatment with PARP inhibitors, cells were incubated for 24 hours before fixation.
(§8) Cells were plated in 8-well slides (Fisher) to achieve 50% confluence overnight. Cells were then treated and fixed with 4% formaldehyde in PBS at room temperature for 10 minutes. Antibody staining was performed according to the manufacturers protocol (Cell Signaling Technologies or Abcam). Primary antibodies used were γH2AX (CST, #2577), RPA1 (CST, #2267) and RAD51 (Abcam, 63801), with Anti-rabbit IgG Fab2 Alexa Fluor 647 (CST, #4414) as the secondary fluorescent antibody. After antibody labeling, prolong gold with DAPI (CST) was added and samples were stored for up to 1 week prior to imaging. Confocal imaging was performed on an Olympus FV1000 multiphoton/confocal microscope using an Olympus XLUMPlanFL N 20× objective, NA 1.00 with chromatic correction, and 3× digital zoom. DAPI was excited with a 405 nm laser, while Alexa Fluor 647 was excited with a 635 nm laser. A multiband (DM 405/488/561/633 nm) dichroic mirror was used to direct the excitation laser and collect emission. […]

[6] = test system: OVCA429 cells; test: γH2AX immunofluorescence in OVCA429 cells (intensity, Imaris Spots, ICS TNoP and DA); format: cell-based
Source text: as §3, §4, §5, §6, §7, §8

[7] = molecular target: T1, PARP1 (Homo sapiens, UniProt P09874); test: PARP1 trapping by chromatin fractionation in HT1080 cells; format: cell-based; settings: HT1080, 100 μM veliparib vs 1 μM talazoparib
Method: Lysate was then pelleted by centrifugation at 14,000 g for 15 min at 4° C. Supernatant was transferred to a clean tube and total protein was determined using a BCA assay (Pierce). Protein was loaded into a NuPAGE gel (Thermo Fisher) and transferred to nitrocellulose paper (Thermo Fisher). Blocking and antibody labeling was then carried out according to the antibody manufacturer's protocol. For PAR measurements, cells were treated with TMZ for 1 hour, or 1 μM H2O2 for 10 minutes in 6-well plates. Cells were trypsinized and washed once with PBS prior to cell lysis. Western blot expression levels were quantified by inverting the red channel of an image of the blot in FIJI, subtracting the background intensity and measuring the total intensity of the lane. These values where then normalized to the control signal. […] The media was removed, and cells were scraped off the culture dish in 1 ml PBS. The cells were pelleted by centrifugation at 500 g for 4 minutes at 4° C. and the solution was removed. Pellets were resuspended in 250 μl lysis buffer (10 mM HEPES, 10 mM KCl, 1.5 mM MgCl2, 340 mM sucrose, 10% glycerol, 0.1% Triton X-100, pH 7.9, protease inhibitors (Thermo Fisher)) and incubated on ice for 10 minutes. Nuclei were separated by centrifugation at 1300 g for 5 minutes at 4° C. and the solution was collected (cytoplasm fraction). […]

[8] = test system: HT1080 cells; test: 53BP1-mApple condensate anisotropy and intensity in HT1080 cells; format: cell-based; settings: HT1080, increased veliparib concentrations
Method: as §2
Cells were grown on 12 mm round, uncoated, sterilized glass coverslips in 24-well plates for 24 hours. Cells were treated with PARPi and 100 μM TMZ for 1 hour or 10 nM GMX1778 overnight followed by 100 μM TMZ for 1 hour. […] Images were analyzed in MATLAB. […] Values of segmented nuclei and condensates were determined through the regionprops function. […] The average intensity and anisotropy of each segmented nuclei or condensate was then calculated. […]

[9] = molecular target: T1, PARP1; settings: actual rate multiplied by 10^−7 for the stochastic model
Source text: ka (trap): The association constant of PARPi for PARP1. […] Values were taken as an average of previous measurements. […] Values were taken as an average of previous measurements. […] Values were taken as an average of previous measurements.
Association of PARPi to PARP1 (p.ka_trap): The association constant of each PARPi on PARP1. […] Rates were corrected to account for the interpretation of PARP1 concentration relative to DNA through multiplying the actual rate by 10^−7. This rate correction was performed for all association constants.

[10] = molecular target: PARP (Homo sapiens, UniProt P09874); settings: HT1080, 1 μM PARPi, 500 nM fluorescent olaparib
Method: Cells were grown on 25 mm round, uncoated, sterilized glass coverslips in 6-well plates for 24 hours. […] Coverslips were removed from the 6-well plates, mounted onto a perfusion chamber (Warner Instruments), sealed with vacuum grease and perfused with a custom tubing setup. The chamber was then mounted onto the microscope and temperature was maintained at 37° C. using a heating pad and feedback loop. Cells were initially located using fluorescent drug or autofluorescence and allowed to temperature equilibrate on the microscope stage for at least 5 minutes. Images were acquired using the anisotropy configuration as described above. After initial images were acquired, the chamber was perfused with 10× volume of the wash media containing fluorescent drug while chamber media and excess wash media were aspirated out of the chamber with vacuum. Images were then acquired at the desired time points while correcting for any drift. Association of fluorescent drug measurements were performed through rapid addition of media containing fluorescent drug (500 nM) and immediate image acquisition.
Nuclei were segmented in MATLAB and the average nuclear intensity and anisotropy were calculated using the regionprops function. […] Values were then plotted as a function of time, with t=0 when PARPi was removed, in Prism (Graphpad) and a one phase association curve was fit to obtain the binding rate. […]

[11] = molecular target: T1, PARP1; settings: average of previous measurements; cited from earlier work
[12] = molecular target: PARP1-DNA (Homo sapiens, UniProt P09874); settings: from previous findings; cited from earlier work
PARP1-DNA, sequence (P09874 whole entry): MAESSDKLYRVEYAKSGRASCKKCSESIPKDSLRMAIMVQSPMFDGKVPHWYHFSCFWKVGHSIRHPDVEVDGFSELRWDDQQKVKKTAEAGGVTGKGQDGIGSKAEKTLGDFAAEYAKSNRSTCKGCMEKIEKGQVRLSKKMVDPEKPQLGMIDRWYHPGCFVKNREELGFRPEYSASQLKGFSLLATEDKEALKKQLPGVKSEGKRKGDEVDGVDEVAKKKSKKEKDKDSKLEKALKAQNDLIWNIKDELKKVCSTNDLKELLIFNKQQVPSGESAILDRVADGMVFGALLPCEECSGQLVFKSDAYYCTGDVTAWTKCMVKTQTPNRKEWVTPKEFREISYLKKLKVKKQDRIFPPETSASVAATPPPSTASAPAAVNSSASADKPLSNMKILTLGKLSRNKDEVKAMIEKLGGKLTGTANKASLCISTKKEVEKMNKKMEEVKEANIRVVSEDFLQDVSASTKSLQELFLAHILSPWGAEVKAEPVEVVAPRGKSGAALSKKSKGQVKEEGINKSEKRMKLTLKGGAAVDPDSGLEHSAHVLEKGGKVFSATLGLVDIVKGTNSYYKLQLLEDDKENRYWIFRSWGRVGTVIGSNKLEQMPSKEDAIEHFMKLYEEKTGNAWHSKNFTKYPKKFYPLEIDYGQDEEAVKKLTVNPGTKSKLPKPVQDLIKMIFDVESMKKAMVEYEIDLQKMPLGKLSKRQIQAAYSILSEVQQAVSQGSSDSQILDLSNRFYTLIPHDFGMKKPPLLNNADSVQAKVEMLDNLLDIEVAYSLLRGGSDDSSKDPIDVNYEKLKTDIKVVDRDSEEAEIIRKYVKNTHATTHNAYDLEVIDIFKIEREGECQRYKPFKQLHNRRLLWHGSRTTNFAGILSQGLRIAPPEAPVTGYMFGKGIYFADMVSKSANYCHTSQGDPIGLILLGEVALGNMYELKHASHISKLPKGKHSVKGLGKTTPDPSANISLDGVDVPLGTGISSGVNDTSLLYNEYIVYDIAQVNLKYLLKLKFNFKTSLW

T1 sequence (P09874 whole entry, species assumed): as the sequence (P09874 whole entry) above
PARP, sequence (P09874 2-1014): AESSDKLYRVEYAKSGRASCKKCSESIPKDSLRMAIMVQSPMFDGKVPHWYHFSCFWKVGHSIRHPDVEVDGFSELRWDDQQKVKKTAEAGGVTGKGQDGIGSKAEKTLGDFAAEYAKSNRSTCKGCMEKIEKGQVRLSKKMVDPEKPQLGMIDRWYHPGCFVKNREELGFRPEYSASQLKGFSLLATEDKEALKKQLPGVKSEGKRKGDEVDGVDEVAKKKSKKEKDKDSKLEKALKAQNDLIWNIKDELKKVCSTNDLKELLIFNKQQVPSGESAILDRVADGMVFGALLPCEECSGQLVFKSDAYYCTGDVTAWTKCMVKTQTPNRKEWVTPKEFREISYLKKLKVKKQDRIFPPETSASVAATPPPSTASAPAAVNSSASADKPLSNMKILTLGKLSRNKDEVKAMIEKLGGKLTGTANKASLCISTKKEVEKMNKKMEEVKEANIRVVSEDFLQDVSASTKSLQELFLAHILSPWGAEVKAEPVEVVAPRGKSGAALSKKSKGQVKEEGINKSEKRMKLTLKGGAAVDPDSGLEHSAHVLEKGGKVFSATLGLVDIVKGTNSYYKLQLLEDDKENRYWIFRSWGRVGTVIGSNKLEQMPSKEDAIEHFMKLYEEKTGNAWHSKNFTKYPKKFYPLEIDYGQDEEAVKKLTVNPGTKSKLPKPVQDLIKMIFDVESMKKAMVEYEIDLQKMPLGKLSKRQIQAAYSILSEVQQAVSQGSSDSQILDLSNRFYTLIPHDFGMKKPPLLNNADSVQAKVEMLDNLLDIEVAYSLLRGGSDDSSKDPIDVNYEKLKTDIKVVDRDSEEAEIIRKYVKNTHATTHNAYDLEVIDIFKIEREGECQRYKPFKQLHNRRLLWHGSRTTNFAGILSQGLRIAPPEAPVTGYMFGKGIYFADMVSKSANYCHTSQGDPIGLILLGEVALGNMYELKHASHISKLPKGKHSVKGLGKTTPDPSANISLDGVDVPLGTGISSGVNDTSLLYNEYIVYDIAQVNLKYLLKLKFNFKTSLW

Compound | γH2AX levels measured by intensity ([1]; HT1080, 1 μM PARPi overnight) | 53BP1-mApple condensate anisotropy vs control [2] | γH2AX levels (intensity) over control [3] | γH2AX DA induced by 1 μM veliparib or talazoparib, with vs without PDD00017273 ([1]; HT1080, 100 nM PDD00017273 overnight) | HT1080 dose response to veliparib, with vs without PDD00017273 [4] | ICS TNoP of γH2AX, dose dependence ([5]; SKOV3) | Normalized γH2AX intensity ([5]; SKOV3, 1 μM veliparib, 24 hours) | ICS DA of γH2AX at 100 μM, compared to respective controls ([5]; SKOV3, 100 μM) | Number of γH2AX foci (Imaris Spots) at the highest dose of PARP inhibitor ([5]; SKOV3, highest dose) | ICS DA of γH2AX, dose dependence ([6]; OVCA429) | Imaris Spots analysis of γH2AX, dose dependence ([6]; OVCA429) | γH2AX intensity, dose dependence ([6]; OVCA429, PARP inhibitors) | PARP1 trapping [7] | Condensate 53BP1-mApple intensity [8] | p.ka_trap: association of PARPi to PARP1, corrected rate [9] | Apparent dissociation constant (koff) of PARPi in live cells [10] | ka (trap): association constant of PARPi for PARP1 [11] | kd (trap): dissociation of PARPi from PARP1(-DNA) [11] | kd (rel PARPi): dissociation constant of PARPi-PARP1 from DNA [12]
Cn1ncnc1[C@H]1c2n[nH]c(=O)c3cc(F)cc(c23)N[C@@H]1c1ccc(F)cc1 [talazoparib] | high levels of γH2AX | significantly lower condensate anisotropy compared to control | increased γH2AX levels | – | – | – | – | – | – | – | – | – | – | – | – | – | – | – | –
PDD00017273 | – | – | – | did not alter the veliparib or talazoparib induced γH2AX DA; also recorded: no significant differences | did not impact HT1080 response to veliparib | – | – | – | – | – | – | – | – | – | – | – | – | – | –
C[C@]1(c2nc3c(C(N)=O)cccc3[nH]2)CCCN1 [veliparib] | – | not | – | – | – | failed to induce any correlative TNOP dose dependence | slight decrease | higher value than 100 μM olaparib | higher | full dose dependent increases in γH2AX clustering | failed to capture the full dose dependent DNA damage | did not show a dose dependence | unable to reproduce the trapping observed with just 1 μM talazoparib | lowered condensate 53BP1-mApple intensity | 0.18 M⁻¹ s⁻¹ | values similar to those previously determined in purified protein | 1.8e+06 M⁻¹ s⁻¹ | 0.005 s⁻¹ | 0.00408 s⁻¹
